The target in one test is T1, M3 (Homo sapiens, UniProt P20309).
T1 construct: purchased NIMH Psychoactive Drug Screening Program (PDSP)
As to the kind of experiment: PDSP primary binding M3. Particulars: primary binding, 10,000 nM; last figure of the line = mean of the 4 before it; read-out: M3, PDSP raw data, mean. The protocol: (§1) To determine if any off-target receptor-binding effects are present, all the novel ligands were sent to the National Institute of Mental Health (NIMH), Psychoactive Drug Screening Program (PDSP). The ligands were screened over a panel of 47 receptors, ion channels, and transporters to determine any other possible interactions with […]. The hERG-binding was also determined. […] No binding of the test compounds to calcium channels was observed. […] It is necessary to screen the compounds for hERG-binding during the early process of drug discovery. The unintentional binding of many drugs to hERG can cause blockade of hERG K+ channels in the heart, which can cause many side effects including cardiac arrhythmias and sudden death. […] All of the α5 imidazodiazepines were tested for hERG-binding.
(§2) The NIMH PDSP assay protocol book [https://kidbdev.med.unc.edu/databases/PDSP%20Protocols%20II%202013-03-28.pdf accessed on 23 April 2023]. describes the protocols for primary and secondary radio-ligand binding assays. These assays were carried out in a final volume of 125 µL per well in the appropriate binding buffer.
(§3) The binding of a ligand to a receptor, ion channel, or transporter was determined in the […] of 10 µM of the appropriate reference compound. […] Plates were incubated in the dark for 90 min at rt, and the reactions were stopped by vacuum filtration onto 0.3% polyethyleneimine (PEI) soaked 96-well filter mats using a 96-well Filtermateharvester. This was followed by three washes with cold PBS buffer. Radioactivity was then counted on a Microbeta counter. Nonlinear regression was used to analyze the data with N = 6 replicates.

A further test deals with T2, 5-HT7A (Homo sapiens, UniProt P34969).
T2 construct: purchased NIMH Psychoactive Drug Screening Program (PDSP)
As to the kind of experiment: PDSP primary binding 5-HT7A. Particulars: 1.5 h; primary binding, 10,000 nM; last figure of the line = mean of the 4 before it; read-out: 5-HT7A, PDSP raw data, mean. The protocol: as §1, §2, §3

For test [1], the target named is kappa opioid receptors (KOR) (Homo sapiens, UniProt P41145). As to the kind of experiment: PDSP radioligand binding at KOR. Particulars: for inhibition at 10 µM: 1.5 h.
Source text: Opioid receptors are a family of inhibitory G-coupled protein receptors where opioids act as the ligand. The kappa opioid receptors (KOR), µ and δ opioid receptors (MOR and DOR), and nociception opioid receptor (NOP) fall under the family of opioids receptors. It has been reported that oxadiazole imidazodiazepines can mediate analgesic and anti-inflammatory properties mediated also by the κ opioid receptor (KOR). The binding at KOR is usually silent. The affinities of the test compounds for KOR, DOR, and MOR were determined using radioligand binding assays at a screening concentration of 10,000 nM in collaboration with the National Institute of Mental Health’s Psychoactive Drug Screening Program (PDSP), as mentioned before. Concentration-dependent experiments were conducted to determine Ki values for the compounds that exceeded more than 50% radioligand displacement in primary binding assays.
as §2, §3

A further test deals with T3, 5-HT2C (Homo sapiens, UniProt P28335).
T3 construct: purchased NIMH Psychoactive Drug Screening Program (PDSP)
T3 sequence (P28335 33-458): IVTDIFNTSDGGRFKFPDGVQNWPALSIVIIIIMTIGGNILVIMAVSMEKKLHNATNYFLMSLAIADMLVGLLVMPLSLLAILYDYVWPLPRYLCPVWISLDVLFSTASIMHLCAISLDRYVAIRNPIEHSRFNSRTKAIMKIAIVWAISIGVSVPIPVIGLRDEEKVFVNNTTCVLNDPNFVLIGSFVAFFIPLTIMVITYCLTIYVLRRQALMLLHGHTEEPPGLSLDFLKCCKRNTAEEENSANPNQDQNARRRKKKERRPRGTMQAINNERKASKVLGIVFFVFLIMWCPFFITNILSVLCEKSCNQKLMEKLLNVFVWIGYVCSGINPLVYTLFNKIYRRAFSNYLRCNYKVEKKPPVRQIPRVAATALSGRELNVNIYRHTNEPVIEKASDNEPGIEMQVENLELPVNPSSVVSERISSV
As to the kind of experiment: PDSP primary binding 5-HT2C. Particulars: 1.5 h; primary binding, 10,000 nM; last figure of the line = mean of the 4 before it; read-out: 5-HT2C, PDSP raw data, mean. The procedure:
as §1, §2, §3

The target in the next test is T4, M3D (Homo sapiens, UniProt P20309, A239G/Y149C).
T4 construct: purchased NIMH Psychoactive Drug Screening Program (PDSP)
Description: PDSP primary binding M3D. Particulars: primary binding, 10,000 nM; last figure of the line = mean of the 4 before it; read-out: M3D, PDSP raw data, mean. The protocol:
as §1, §2, §3

The target in the next test is T5, Alpha3Beta2 (Rattus norvegicus, UniProt P04757+P12390).
T5 construct: purchased NIMH Psychoactive Drug Screening Program (PDSP)
As to the kind of experiment: PDSP primary binding Alpha3Beta2. Particulars: primary binding, 10,000 nM; last figure of the line = mean of the 4 before it; read-out: Alpha3Beta2, PDSP raw data, mean. The procedure:
as §1, §2, §3

A further test concerns the target T6, 5-HT1E (Homo sapiens, UniProt P28566).
T6 construct: purchased NIMH Psychoactive Drug Screening Program (PDSP)
Description: PDSP primary binding 5-HT1E. The settings on record: primary binding, 10,000 nM; last figure of the line = mean of the 4 before it. The procedure:
as §1, §2, §3

A further test has as its target T7, H1 (Homo sapiens, UniProt P35367).
T7 construct: purchased NIMH Psychoactive Drug Screening Program (PDSP)
As to the kind of experiment: PDSP primary binding H1. Particulars: primary binding, 10,000 nM; last figure of the line = mean of the 4 before it; read-out: H1, PDSP raw data, mean. The protocol: as §1, §2, §3

Another test has as its target T8, D2 (Homo sapiens, UniProt P14416).
T8 construct: purchased NIMH Psychoactive Drug Screening Program (PDSP)
As to the kind of experiment: PDSP primary binding D2. The settings on record: 1.5 h; primary binding, 10,000 nM; last figure of the line = mean of the 4 before it; read-out: D2, PDSP raw data, mean. The procedure: as §1, §2, §3

Another test deals with T9, M2 (Homo sapiens, UniProt P08172).
T9 construct: purchased NIMH Psychoactive Drug Screening Program (PDSP)
T9 sequence (P08172 1-466): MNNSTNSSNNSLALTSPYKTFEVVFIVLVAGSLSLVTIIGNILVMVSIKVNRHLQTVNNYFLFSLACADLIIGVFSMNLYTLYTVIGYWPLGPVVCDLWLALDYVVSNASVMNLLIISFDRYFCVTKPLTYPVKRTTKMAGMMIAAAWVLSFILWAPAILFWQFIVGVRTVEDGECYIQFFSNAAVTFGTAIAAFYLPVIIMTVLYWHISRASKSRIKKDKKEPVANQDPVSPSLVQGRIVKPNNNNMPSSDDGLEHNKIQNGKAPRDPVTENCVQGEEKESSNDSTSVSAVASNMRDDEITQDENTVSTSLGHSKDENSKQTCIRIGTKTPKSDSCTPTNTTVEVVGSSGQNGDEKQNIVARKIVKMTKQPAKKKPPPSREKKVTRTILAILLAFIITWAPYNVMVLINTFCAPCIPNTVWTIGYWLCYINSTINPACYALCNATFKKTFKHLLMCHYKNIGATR
Description: PDSP primary binding M2. Particulars: primary binding, 10,000 nM; last figure of the line = mean of the 4 before it; read-out: M2, PDSP raw data, mean. The protocol: as §1, §2, §3

[2] abbreviates: at 10,000 nM, N = 5, [3H]-U69593 0.83 nM, read-out: Primary Binding %KOR.
[3] abbreviates: primary binding, 10,000 nM, last figure of the line = mean of the 4 before it, read-out: KOR, PDSP raw data, mean.

Like-named read-outs stand apart in the source and are kept apart here.

The record followed here is PMC10303271, “Synthesis and Receptor Binding Studies of α5 GABAAR Selective Novel Imidazodiazepines Targeted for Psychiatric and Cognitive Disorders” (Molecules, 2023).

T1 sequence (P20309 whole entry): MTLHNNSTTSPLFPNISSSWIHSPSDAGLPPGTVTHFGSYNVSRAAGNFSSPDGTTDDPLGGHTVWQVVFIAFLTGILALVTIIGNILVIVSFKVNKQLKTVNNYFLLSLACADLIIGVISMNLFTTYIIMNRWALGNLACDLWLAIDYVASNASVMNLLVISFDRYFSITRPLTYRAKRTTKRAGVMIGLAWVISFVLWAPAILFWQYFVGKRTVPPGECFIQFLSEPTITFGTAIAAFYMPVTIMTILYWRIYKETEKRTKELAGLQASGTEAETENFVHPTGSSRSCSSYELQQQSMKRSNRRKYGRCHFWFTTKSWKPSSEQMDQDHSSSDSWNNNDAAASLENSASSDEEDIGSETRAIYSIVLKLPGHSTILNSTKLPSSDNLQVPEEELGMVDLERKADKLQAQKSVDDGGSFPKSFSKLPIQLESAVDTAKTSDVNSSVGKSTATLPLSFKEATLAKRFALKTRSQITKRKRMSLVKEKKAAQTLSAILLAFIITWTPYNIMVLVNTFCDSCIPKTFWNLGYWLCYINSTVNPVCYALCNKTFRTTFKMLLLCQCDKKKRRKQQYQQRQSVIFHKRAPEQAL
T8 sequence (P14416 whole entry): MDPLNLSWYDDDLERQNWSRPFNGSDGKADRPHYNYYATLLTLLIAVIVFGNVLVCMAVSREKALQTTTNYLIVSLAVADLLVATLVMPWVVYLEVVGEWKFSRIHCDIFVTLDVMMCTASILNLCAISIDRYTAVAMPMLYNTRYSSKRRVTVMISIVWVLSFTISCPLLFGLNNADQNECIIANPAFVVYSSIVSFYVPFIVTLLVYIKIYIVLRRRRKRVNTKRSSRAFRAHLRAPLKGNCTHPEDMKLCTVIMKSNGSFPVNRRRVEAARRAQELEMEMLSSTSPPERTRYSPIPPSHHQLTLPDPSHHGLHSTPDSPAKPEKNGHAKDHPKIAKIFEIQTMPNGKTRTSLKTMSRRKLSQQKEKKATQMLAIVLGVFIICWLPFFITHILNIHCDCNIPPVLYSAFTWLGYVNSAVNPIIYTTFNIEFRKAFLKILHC
Sequence of kappa opioid receptors (KOR) (P41145 whole entry): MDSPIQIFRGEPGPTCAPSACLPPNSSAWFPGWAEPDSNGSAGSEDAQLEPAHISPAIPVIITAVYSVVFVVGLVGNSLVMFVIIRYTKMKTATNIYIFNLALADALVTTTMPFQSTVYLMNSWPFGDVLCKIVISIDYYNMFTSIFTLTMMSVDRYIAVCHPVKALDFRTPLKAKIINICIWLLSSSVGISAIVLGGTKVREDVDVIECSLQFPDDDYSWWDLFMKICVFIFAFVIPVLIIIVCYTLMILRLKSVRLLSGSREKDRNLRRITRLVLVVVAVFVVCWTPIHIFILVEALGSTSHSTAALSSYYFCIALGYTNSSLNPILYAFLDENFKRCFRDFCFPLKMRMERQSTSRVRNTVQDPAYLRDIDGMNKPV
T4 sequence (P20309 whole entry Y149C/A239G): as the sequence (P20309 whole entry) above, with Y149C, A239G counted along it
T2 sequence (P34969 1-445 isoform P34969-2): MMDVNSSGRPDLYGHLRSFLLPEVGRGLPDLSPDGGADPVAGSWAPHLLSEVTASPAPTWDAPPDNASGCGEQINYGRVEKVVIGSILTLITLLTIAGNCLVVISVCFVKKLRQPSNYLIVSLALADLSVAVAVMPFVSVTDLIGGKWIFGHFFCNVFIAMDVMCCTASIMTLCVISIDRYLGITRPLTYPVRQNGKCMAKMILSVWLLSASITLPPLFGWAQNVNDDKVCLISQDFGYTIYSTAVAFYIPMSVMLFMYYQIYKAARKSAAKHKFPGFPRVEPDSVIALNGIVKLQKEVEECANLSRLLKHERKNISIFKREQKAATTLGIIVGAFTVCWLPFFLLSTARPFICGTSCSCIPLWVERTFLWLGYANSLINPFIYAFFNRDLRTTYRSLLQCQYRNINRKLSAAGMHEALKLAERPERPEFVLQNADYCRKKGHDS
T5 sequence (P04757 26-499): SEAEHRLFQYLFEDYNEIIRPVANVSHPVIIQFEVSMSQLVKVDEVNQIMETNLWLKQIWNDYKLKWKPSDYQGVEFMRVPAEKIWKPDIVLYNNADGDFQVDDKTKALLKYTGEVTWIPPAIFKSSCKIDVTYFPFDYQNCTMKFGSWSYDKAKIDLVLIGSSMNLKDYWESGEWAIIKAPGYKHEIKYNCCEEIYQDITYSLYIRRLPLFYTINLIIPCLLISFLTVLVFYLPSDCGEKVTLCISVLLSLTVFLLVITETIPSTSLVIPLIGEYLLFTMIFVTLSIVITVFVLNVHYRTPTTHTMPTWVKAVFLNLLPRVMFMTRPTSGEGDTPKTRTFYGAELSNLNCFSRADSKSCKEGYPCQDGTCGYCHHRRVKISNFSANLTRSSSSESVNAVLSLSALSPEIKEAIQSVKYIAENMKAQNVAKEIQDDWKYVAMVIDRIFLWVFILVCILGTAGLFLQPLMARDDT
T5 sequence (P12390 25-500): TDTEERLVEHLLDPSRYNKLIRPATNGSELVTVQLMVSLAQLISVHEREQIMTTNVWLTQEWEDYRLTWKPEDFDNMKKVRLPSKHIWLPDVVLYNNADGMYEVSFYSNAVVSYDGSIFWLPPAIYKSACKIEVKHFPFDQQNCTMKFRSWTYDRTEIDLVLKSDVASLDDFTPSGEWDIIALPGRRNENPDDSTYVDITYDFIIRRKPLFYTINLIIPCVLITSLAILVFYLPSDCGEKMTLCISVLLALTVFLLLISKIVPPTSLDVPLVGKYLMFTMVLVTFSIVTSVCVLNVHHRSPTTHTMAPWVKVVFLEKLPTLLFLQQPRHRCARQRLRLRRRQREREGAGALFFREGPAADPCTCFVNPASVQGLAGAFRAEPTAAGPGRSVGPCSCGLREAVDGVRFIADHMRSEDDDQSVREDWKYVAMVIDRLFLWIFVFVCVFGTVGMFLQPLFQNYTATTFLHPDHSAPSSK
T7 sequence (P35367 whole entry): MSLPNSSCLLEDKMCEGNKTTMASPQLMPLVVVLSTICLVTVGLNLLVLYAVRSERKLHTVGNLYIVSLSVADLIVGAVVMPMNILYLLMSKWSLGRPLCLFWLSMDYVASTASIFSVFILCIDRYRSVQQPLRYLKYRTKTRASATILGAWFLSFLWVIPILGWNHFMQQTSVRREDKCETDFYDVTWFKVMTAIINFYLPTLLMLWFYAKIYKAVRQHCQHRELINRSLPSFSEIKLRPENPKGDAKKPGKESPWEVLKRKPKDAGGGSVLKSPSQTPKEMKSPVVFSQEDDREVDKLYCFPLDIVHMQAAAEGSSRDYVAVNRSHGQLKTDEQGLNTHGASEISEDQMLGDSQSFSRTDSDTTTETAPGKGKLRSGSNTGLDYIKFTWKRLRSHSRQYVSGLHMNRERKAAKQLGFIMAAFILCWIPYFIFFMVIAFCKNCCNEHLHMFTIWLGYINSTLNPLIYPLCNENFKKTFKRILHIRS
T6 sequence (P28566 whole entry): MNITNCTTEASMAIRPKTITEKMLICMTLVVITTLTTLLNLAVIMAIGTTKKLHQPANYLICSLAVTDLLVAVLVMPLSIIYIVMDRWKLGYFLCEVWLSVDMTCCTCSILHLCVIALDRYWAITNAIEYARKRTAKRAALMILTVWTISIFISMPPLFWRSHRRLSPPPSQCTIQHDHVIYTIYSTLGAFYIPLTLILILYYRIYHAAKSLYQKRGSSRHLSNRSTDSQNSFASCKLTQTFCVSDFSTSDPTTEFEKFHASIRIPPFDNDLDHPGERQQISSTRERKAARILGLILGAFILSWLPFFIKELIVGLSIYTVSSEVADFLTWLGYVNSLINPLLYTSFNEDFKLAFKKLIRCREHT

For `CCc1noc(-c2ncn3c2CN=C(c2ccccc2F)c2cc(C4CC4)ccc2-3)n1` [Compound 44, 5-(8-Cyclopropyl-6-(2′-fluorophenyl)-4H-benzo[f]imidazo[1,5-a][1,4]diazepin-3-yl)-3-ethyl-1,2,4-oxadiazole], the inhibition at 10 µM was -0.6% on M3; 9.22% at 5-HT7A; 96.3 ± 2.29% in test [1] (setting [2]); 96.3% in test [1] (setting [3]); 24.7% on 5-HT2C; 11.8% at M3D. Moreover, the inhibition at 10 µM on Alpha3Beta2 was -0.02%; at H1 it was 16.3%; on D2, 0.67%; on M2, -13.6%. In [1], this molecule showed an inhibition constant Ki of 207 ± 33.1 nM. The “5-HT1E, PDSP raw data, mean” value on 5-HT1E is recorded as 11.75%.

In the case of `C#Cc1ccc2c(c1)C(c1ccccc1Cl)=N[C@H](C)c1c(C(=O)N(C)CC)ncn1-2` [Compound 29], the inhibition at 10 µM is -8.9% on M3; -2.22% on 5-HT7A; 69.1 ± 29.1% in test [1] (setting [2]); 69.1% in [1] (setting [3]); -10.7% on 5-HT2C; 6.78% at M3D. Also, the inhibition at 10 µM at Alpha3Beta2 was 3.52%; at H1, -1.99%; on D2, -1.58%; at M2 it was 3.03%. In test [1], this molecule came in with an inhibition constant Ki of 392 ± 78.8 nM. The “5-HT1E, PDSP raw data, mean” value on 5-HT1E is on record as 19.25%.

Consider `CCc1noc(-c2ncn3c2[C@@H](C)N=C(c2ccccc2F)c2cc(-c4ccccc4)ccc2-3)n1` [Compound 35, (R)-3-Ethyl-5-(6-(2′-fluorophenyl)-4-methyl-8-phenyl-4H-benzo[f]imidazo[1,5-a][1,4]diazepin-3-yl)-1,2,4-oxadiazole], for which the inhibition at 10 µM at M3 was found to be 9.75%; on 5-HT7A it was 8.12%; in test [1] (setting [2]), 38 ± 1.73%; in [1] (setting [3]), 38%; on 5-HT2C it was 19.7%; on M3D, 4.49%. The inhibition at 10 µM on Alpha3Beta2 was 5.43%; on H1 it was 10.5%; on D2, 7.47%; at M2, -7.95%. For the same molecule, the “5-HT1E, PDSP raw data, mean” value on 5-HT1E is on record as 5.88%.

Consider `C#Cc1ccc2c(c1)C(c1ccccn1)=N[C@@H](C)c1c(C(=O)N(C)C)ncn1-2` [Compound 31, (S)-8-Ethynyl-N,N,4-trimethyl-6-(pyridin-2′-yl)-4H-benzo[f]imidazo[1,5-a][1,4]diazepine-3-carboxamide], for which the inhibition at 10 µM at M3 is -13%; on 5-HT7A, -9.64%; in [1] (setting [2]) it was -3.79 ± 4.99%; in test [1] (setting [3]) it was -3.79%; at 5-HT2C it was -12.3%; on M3D it was 6.59%. Also, the inhibition at 10 µM on Alpha3Beta2 is 3.57%; on H1, -7.38%; at D2, 3.47%; on M2, 3.03%. The “5-HT1E, PDSP raw data, mean” value on 5-HT1E worked out at 18.14%.

As to `CC(C)c1noc(-c2ncn3c2[C@@H](C)N=C(c2ccccc2F)c2cc(Cl)ccc2-3)n1` [Compound 37, (R)-5-(8-Chloro-6-(2′-fluorophenyl)-4-methyl-4H-benzo[f]imidazo[1,5-a][1,4]diazepin-3-yl)-3-isopropyl-1,2,4-oxadiazole], the inhibition at 10 µM on M3 was 15.6%; on 5-HT7A, 12.1%; in [1] (setting [2]), 99.2 ± 1.75%; in test [1] (setting [3]) it was 99.2%; on 5-HT2C, 17.5%; on M3D it was -23.4%. Also, the inhibition at 10 µM on Alpha3Beta2 was 5.77%; at H1, 59%; at D2 it was 18.2%; on M2, -19.3%. In test [1], this molecule gave a Ki of 46.3 ± 4.93 nM. Also, the “5-HT1E, PDSP raw data, mean” value on 5-HT1E was -14.78%.

For `C#Cc1ccc2c(c1)C(c1ccccn1)=N[C@@H](C)c1c(C(=O)NC)ncn1-2` [Compound 23, (S)-8-Ethynyl-N,4-dimethyl-6-(pyridin-2′-yl)-4H-benzo[f]imidazo[1,5-a][1,4]diazepine-3-carboxamide], the inhibition at 10 µM is 0.11% on M3; -13.5% at 5-HT7A; 26.9 ± 6.21% in [1] (setting [2]); 26.9% in test [1] (setting [3]); -10.1% at 5-HT2C; 9.08% on M3D. For the same molecule, the inhibition at 10 µM was 7.13% on Alpha3Beta2, -2.54% at H1, -4.79% on D2 and -6.16% on M2. For the same molecule, at 5-HT1E, the “5-HT1E, PDSP raw data, mean” value is given as 19.33%.
